Laboratory results reported in US8575199B2, “Formula (IA″) compounds comprising (piperidin-4-yl)pyridine or (1,2,3,6-tetrahydropyridin-4-4yl) as TRPV1 antagonists” (Purdue Pharma L.P., priority 2007, dated 2013).
Converted amounts (≈) assume the structure as drawn. Read-outs that look alike come from different tables or passages of the source.

Key:
[1] = Aqueous solubility at pH 6.8 or pH 1.2; assay type: physicochemical; settings: aqueous solution
human recombinant TRPV1 = molecular target: T1, human recombinant TRPV1 (Homo sapiens, UniProt Q8NER1); test: pH-based assay, Protocol 2 (hpH-CHO), Ca2+ influx by Fura-2 AM/FDSS-3000 in TRPV1/CHO cells; assay type: cell-based; settings: H2SO4 agonist, pH 5.0-5.1, mean ± standard error of the mean (number of trials), read-out: TRPV1 IC50 Potency, Human pH CHO (hpH-CHO)
T1 construct: using primers designed surrounding the complete hTRPV1 open reading frame; expressed in transfected cells; host or cells: CHO-K1 cells stably transfected with pcDNA3.1(-)-hVR1 plasmid
Description: For Protocol 2, a Chinese Hamster Ovary cell line (CHO) that has been engineered to constitutively express human recombinant TRPV1 was used (TRPV1/CHO cells). The TRPV1/CHO cell line was generated as described below.
The resulting PCR products were purified from agarose gels using Gel Band Purification Kit (GE Healthcare Bioscience) and were subcloned into pCR-Blunt vector (Invitrogen). The cloned cDNA was fully sequenced using a fluorescent dye-terminator reagent (BigDye Terminator ver3.1 Cycle Sequencing Kit, Applied Biosystems) and ABI Prism 3100 genetic analyzer (Applied Biosystems). The pCR-Blunt vector containing the hTRPV1 cDNA was subjected to restriction digestion with EcoR1. […] The sequence of the cDNA encoding TRPV1 is available at GenBank accession number AJ277028. […]
(5) The Fura-2 fluorescent intensity was monitored at a wavelength of 340 nm and at 380 nm, respectively, at a rate of 0.5 Hz for a total of 240 seconds. […]
(6) Fluorescence intensity ratio refers to the fluorescence intensity at 340 nm over the fluorescence intensity at 380 nm at a particular time point. […]
(7) Maximal signal ratios from each well were calculated as output data using the FDSS-3000 analysis program. Data were analyzed using Excel (Microsoft) and XLfit (idbs) software.

[2] = pH 1.2, simulated gastric fluid, read-out: aqueous solubility at pH 1.2
[3] = pH 6.8, aqueous buffer, read-out: aqueous solubility at pH 6.8

T1 sequence (Q8NER1 whole entry): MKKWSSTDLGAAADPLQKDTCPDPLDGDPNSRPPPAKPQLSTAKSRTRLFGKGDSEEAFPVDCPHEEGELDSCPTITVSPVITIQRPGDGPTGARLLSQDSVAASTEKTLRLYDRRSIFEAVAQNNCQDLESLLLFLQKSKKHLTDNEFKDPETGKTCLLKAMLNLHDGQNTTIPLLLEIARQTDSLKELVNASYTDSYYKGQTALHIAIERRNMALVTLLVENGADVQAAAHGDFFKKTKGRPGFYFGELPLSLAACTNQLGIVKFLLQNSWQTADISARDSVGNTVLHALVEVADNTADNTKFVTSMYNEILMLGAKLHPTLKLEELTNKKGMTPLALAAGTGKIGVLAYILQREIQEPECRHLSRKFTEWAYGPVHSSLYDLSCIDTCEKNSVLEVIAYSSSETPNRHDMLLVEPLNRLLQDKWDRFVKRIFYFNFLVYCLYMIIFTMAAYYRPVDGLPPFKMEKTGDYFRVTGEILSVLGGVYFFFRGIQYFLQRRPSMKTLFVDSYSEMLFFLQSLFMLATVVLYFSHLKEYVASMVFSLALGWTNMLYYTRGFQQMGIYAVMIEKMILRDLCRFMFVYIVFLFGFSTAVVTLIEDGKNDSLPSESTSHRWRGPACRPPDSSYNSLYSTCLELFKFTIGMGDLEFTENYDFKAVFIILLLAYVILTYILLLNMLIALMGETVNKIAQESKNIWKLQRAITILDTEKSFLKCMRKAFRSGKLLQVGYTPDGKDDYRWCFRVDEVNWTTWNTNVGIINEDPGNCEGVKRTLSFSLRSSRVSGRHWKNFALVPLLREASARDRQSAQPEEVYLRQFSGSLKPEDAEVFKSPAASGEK

Row | SMILES | solubility [1, 2] [µM] | solubility [1, 3] [µM] | IC50 (human recombinant TRPV1) [nM]
1 | O=C(Nc1ccc(C(F)(F)F)c(Cl)c1)N1CC=C(c2ncccc2F)CC1 [Compound 215] | 9.6 (≈ 3.84 µg/mL) | 0.6 (≈ 0.24 µg/mL) | 
2 | O=C(Nc1ccc(OC(F)(F)F)c(-c2ccccc2)c1)N1CC=C(c2ncc(CO)cc2Cl)CC1 [Compound D3] |  |  | 39.8 ± 2.2

Further lines, results first:

Row | solubility [1, 2] [µM] | solubility [1, 3] [µM] | IC50 (human recombinant TRPV1) [nM] | SMILES
3 | 9.3 (≈ 3.9 µg/mL) | 1 (≈ 0.42 µg/mL) |  | O=C(Nc1ccc(C(F)(F)F)c(F)c1)N1CCC(F)(c2ncccc2Cl)CC1 [Compound 209]
4 | 39.6 (≈ 15.8 µg/mL) | 0.8 (≈ 0.32 µg/mL) |  | O=C(Nc1ccc(C(F)(F)F)c(F)c1)N1CC=C(c2ncccc2Cl)CC1 [Compound 213]
5 |  |  | 5.3 ± 1 | O=C(Nc1ccc(C(F)(F)F)c(Cl)c1)N1CCC(F)(c2ncc([C@H](O)CO)cc2F)CC1 [Compound Q3]
